Results from patent publication US20100234348A1, “COMPOSITIONS AND METHODS FOR POTENTIATING ANTIBIOTIC ACTIVITY” (TRUSTEES OF BOSTON UNIVERSITY, priority 2006, published 2010).
In brackets after ≈: the same amount, converted by molar mass.

System: quinolone resistant strain laboratory S7
Assay: Growth of quinolone resistant strain S7 with ciprofloxacin and CB101 forms
Format: cell-based
Settings: Staphylococcus
Procedure: The quinolone resistant strain laboratory S7 was tested for growth in the presence of ciprofloxacin at 0.5 μg/mL (MIC at 1 μg/mL) with 20 μg/mL of CB101 (racemic mixture), the (+) enantiomeric form of CB101 or the (−) enantiomeric form of CB101.

SMILES: O=C(O)c1cn(C2CC2)c2cc(N3CCNCC3)c(F)cc2c1=O [ciprofloxacin]
- MIC: 1 µg/mL (≈ 3.02 µM)
